The text below walks through data of US20110060043A1, “INHIBITORS OF CELL PROLIFERATION AND USES THEREOF” (European Molecular Biology Laboratory (EMBL), priority 2008, published 2011).

The subject of this assay is MCF-7 cells. The assay can be described thus: Cytotoxicity assay (ATPLite cell viability, 72 h) on MCF-7 cells. Format: cell-based. To be noted: Homo sapiens, MCF7; 72 hours incubation, triplicate, ATP levels (ATPLite), inhibition of growth vs DMSO only control. How it is done:
Preferred compounds were analyzed for their ability to inhibit growth of tumour cells (e.g. MCF7, HL60, LL2, HeLa, PC-3, A549 and A375 cells) in vitro. Growth inhibition was tested at various concentrations in a 10 point two fold serial dilution and cells were incubated under standard mammalian tissue culture conditions for 72 hours in triplicate. Cell viability was measured by measuring ATP levels in viable cells using the ATPLite kit (PerkinElmer) as described in the user manual. Raw data was transformed to percentage inhibition of growth compared to a DMSO only control and values were expressed as IC50 in micromolar calculated using XLfit (IDBS).
In general terms: ATP-based viability assays read luminescence as a measure of living cells.
Turning to `COC(=O)c1ccc(C)c(NS(=O)(=O)c2ccc(C)cc2)c1` [Compound (IX), 3-[[(4-methylphenyl)sulfonyl]amino]-4-methyl-benzoic acid methyl ester], the IC50 is 280 nM.
For `COC(=O)c1ccc(C)c(NS(=O)(=O)c2ccc(OC)cc2)c1` [Compound (IV), 3-[[(4-methoxyphenyl)sulfonyl]amino]-4-methyl-benzoic acid methyl ester] the value was 230 nM.
For `COC(=O)c1ccc(C)c(NS(=O)(=O)c2ccc(Cl)cc2)c1` [Compound (VI), 3-[[(4-chlorophenyl)sulfonyl]amino]-4-methyl-benzoic acid methyl ester] the value was 1100 nM.
For `CCOc1ccc(S(=O)(=O)Nc2cc(C(=O)OC)ccc2C)cc1` [Compound (V), 3-[[(4-ethoxyphenyl)sulfonyl]amino]-4-methyl-benzoic acid methyl ester] the value was 160 nM.

By IC50 is commonly meant the concentration that inhibits the measured activity by half.
